Reference: US20230174507A1, “IMIDAZOLE 3-OXIDE DERIVATIVE BASED ACSS2 INHIBITORS AND METHODS OF USE THEREOF” (METABOMED LTD., priority 2020, published 2023)

What was measured:
[1] = target: T1, human ACSS2 protein (Homo sapiens, UniProt Q9NR19); assay: ACSS2 cell-free activity assay (pyrophosphatase-coupled, Biomol green); details: 10 nM human ACSS2, 90 minutes at 37 C, absorbance at 620 nm; read-out: ACSS2 Biochemical IC50
T1 construct: purchased OriGene Technologies, Inc
Summary of the method: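 10 nM human ACSS2 incubated 90 min at 37 C with compound, 300 μM ATP, 10 μM CoA, 5 mM NaAc in pH 7.5 Hepes buffer with 0.5 U/ml pyrophosphatase. Released phosphate detected with Biomol Green at 620 nm; IC50 by non-linear regression constrained to 0% and 100%.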

[2] = target: T2, human ACSS1 protein (Homo sapiens, UniProt Q9NUB1); assay: ACSS1 cell-free activity assay (pyrophosphatase-coupled, Biomol green); type: biochemical; details: 5 nM human ACSS1, 30 minutes at room temperature, absorbance at 620 nm; for IC50: read-out: ACSS1 Biochemical IC50
T2 construct: purchased MyBioSource
T2 sequence (Q9NUB1 38-689): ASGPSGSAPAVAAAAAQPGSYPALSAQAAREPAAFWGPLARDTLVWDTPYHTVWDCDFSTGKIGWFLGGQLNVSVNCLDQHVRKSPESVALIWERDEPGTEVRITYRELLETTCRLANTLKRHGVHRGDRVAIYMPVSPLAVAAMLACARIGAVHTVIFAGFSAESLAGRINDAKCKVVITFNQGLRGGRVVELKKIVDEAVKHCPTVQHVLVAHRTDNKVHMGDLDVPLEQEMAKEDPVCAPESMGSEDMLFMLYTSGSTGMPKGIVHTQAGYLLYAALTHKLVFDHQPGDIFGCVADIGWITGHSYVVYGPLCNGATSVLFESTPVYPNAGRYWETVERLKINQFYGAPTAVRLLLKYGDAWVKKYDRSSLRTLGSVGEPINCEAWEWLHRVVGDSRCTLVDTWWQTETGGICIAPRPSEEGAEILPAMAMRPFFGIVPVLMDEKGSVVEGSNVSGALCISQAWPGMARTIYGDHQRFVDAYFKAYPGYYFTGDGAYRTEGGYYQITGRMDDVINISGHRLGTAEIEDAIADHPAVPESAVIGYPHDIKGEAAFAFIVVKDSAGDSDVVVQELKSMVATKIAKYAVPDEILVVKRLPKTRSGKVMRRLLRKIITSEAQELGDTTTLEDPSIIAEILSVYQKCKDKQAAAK
Summary of the method: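 5 nM human ACSS1 incubated 30 min at RT with compound in pH 7.5 Hepes buffer with 15 μM CoA, 5 mM acetate, 300 μM ATP, 2 mM MgCl2 and pyrophosphatase. Released phosphate detected with Biomol Green (30 min), absorbance 620 nm. IC50 from constrained non-linear regression.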

[3] = target: T3, ACSS2 in MDA-MB-468 cells (Homo sapiens, UniProt Q9NR19); assay: Cellular fatty-acid IC50: 13C-acetate incorporation into fatty acids (palmitate), LC-MS; type: cell-based; details: hypoxic conditions (1% O2), 75% charcoal stripped serum, 5 hours, 13C-acetate into palmitate, read-out: Cellular Fatty-acid IC50 High Serum MDA468
T3 construct: endogenous in cells; host or cells: MDA-MB-468 cells, hypoxia (1% O2)
Experimental: Cellular Fatty-Acid IC50 Determination:
The cellular activity of ACSS2 was measured in MDA-MB-468 cells under hypoxic conditions by tracing the incorporation of labelled carbons from ^13C-acetate into newly synthesized fatty acids. The assay was performed using 75% charcoal stripped serum (high serum conditions).
MDA-MB-468 cells were seeded in 12-well plates (0.35×10^6 cells per well) in plating medium (Dulbecco's Modified Eagle Medium containing 25 mM D-glucose, 1 mM sodium pyruvate, 10% v/v fetal bovine serum, and 2 mM glutamine) and incubated for 24 hours under hypoxic conditions (1% O2).
The next day, tracing medium containing DMEM (01-057-1A) containing 75% charcoal stripped serum (Biological industries 04-201-1A), 3.5 μg/mL Biotin (Sigma-Aldrich B4639), 1 mM Pyruvate, 5.5 mM Glucose, 0.65 mM Glutamine and 0.5 mM ^13C-Acetate (Sigma-Aldrich #282014) with serial dilutions of the compounds in the range of 0.000512-1000 nM were prepared. The plating medium was replaced with 1 mL tracing medium plus compounds and the cells were incubated for 5 hours under hypoxic conditions (1% O2). Plating medium in control wells (without cells or without compounds) was replaced with 1 mL tracing medium containing 0.01% v/v DMSO.
The level of ^13C-acetate incorporation into fatty acids (palmitate) was measured by LC-MS analysis and IC50 as described below:
Sample Preparation for LC-MS
• a) Cells were washed twice with cold phosphate buffered saline (PBS), scraped into 0.5 mL EDTA pH 8.0, and transferred into 1.1 mL V-shaped HPLC glass tubes. • b) The cell suspensions were centrifuged for 5 minutes at 400×g, 4° C. and the supernatants were removed. • c) Cell pellets were frozen at −80° C.
• d) Cell pellets were resuspended in 0.2 mL of 80% v/v ethanol in water containing 0.02 M NaOH in 1.1 ml glass (v-bottom) HPLC vials. • e) The vials were closed tight and incubated at 66° C. for 60 minutes. • f) Acetonitrile containing 2% v/v formic acid (150 μL) was added to each vial and the mixtures were transferred to Eppendorf tubes for centrifugation at 17 000×g for 20 minutes. • g) Supernatants were transferred to LC-MS vials.
The relative palmitate concentration was measured by LC-MS in reconstructed selected ion monitoring (RSIM) mode and negative ion mode. Samples were analyzed on a Phenomenex Kinetex 2.6 μm XB-C18 150×2.1 mm column at 45° C. (0.4 mL/minute flow rate) using: • a) A gradient from 15% A/85% C to 100% C for 0 to 2 minutes (A: water containing 5% v/v acetonitrile, 10 mM ammonium acetate, and 10 mM acetic acid; C: a mixture of 50% v/v acetonitrile and 50% v/v methanol). • b) Isocratic flow (100% C) for 2 to 5 minutes. • c) Equilibration in isocratic conditions (15% A/85% C) for 5 to 8 minutes.
Palmitate was eluted at approximately 3.4 minutes.
The percent inhibition was calculated relative to the sample without compound and after background deduction. IC50 values were calculated using non-linear regression curve fit analysis with 0% and 100% constraints (CDD Vault, Collaborative Drug Discovery, Inc. or GraphPad Prism).
The inhibitory activities of each compound against ACSS2 in MDA-MB-468 cells under high serum conditions, as determined by ^13C-acetate incorporation into fatty acids (palmitate), are presented in Table 2.

T1 sequence (Q9NR19 whole entry): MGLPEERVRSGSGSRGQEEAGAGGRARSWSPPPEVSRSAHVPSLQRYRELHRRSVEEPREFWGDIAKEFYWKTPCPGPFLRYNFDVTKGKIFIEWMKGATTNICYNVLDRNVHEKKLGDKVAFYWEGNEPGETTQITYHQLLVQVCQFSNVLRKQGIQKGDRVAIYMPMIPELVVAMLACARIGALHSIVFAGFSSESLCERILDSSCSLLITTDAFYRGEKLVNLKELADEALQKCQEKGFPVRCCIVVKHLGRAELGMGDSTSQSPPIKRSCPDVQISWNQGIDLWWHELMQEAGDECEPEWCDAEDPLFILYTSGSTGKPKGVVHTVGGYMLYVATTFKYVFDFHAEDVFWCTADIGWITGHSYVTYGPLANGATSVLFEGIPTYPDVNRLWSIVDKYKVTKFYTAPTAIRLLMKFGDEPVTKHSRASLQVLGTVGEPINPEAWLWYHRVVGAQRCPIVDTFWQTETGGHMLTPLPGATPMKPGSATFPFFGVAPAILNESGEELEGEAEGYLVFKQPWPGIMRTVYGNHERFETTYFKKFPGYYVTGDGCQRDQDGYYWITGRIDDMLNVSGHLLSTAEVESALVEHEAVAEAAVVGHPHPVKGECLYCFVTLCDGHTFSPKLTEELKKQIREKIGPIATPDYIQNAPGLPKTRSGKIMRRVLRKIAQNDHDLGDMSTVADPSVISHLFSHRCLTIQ
T3 sequence (Q9NR19 whole entry): as above

| IC50 [1] [nM] | IC50 [2] [nM] | IC50 [3] [nM] | ACSS1 Biochemical IC50 (nM) [2] | Compound |
| --- | --- | --- | --- | --- |
| < 1 | > 30 | < 20 | – | CNC(=O)c1cccc(NC(=O)c2c(C)[nH]c(-c3ccc(OC)c(-c4c(C)cc(F)cc4C)c3)[n+]2[O-])c1 [Compound 185, 2-(4′-fluoro-6-methoxy-2′,6′-dimethyl-[1,1′-biphenyl]-3-yl)-5-methyl-4-((3-(methylcarbamoyl)phenyl)carbamoyl)-1H-imidazole 3-oxide] |
| < 1 | – | > 50 | Inactive | Cc1cccc(C)c1-c1cc(-c2[nH]c(C)c(C(=O)Nc3cccc(C(F)(F)C4CC4)c3)[n+]2[O-])ccc1Cl [Compound 197, 2-(6-chloro-2′,6′-dimethyl-[1,1′-biphenyl]-3-yl)-4-((3-(cyclopropyldifluoromethyl)phenyl)carbamoyl)-5-methyl-1H-imidazole 3-oxide] |
| < 1 | – | < 20 | Inactive | Cc1cccc(C)c1-c1cc(CN(C)C)cc(-c2[nH]c(C)c(C(=O)Nc3cccc(C(F)(F)C4CC4)c3)[n+]2[O-])c1 [Compound 175, 4-((3-(cyclopropyldifluoromethyl)phenyl)carbamoyl)-2-(5-((dimethylamino)methyl)-2′,6′-dimethyl-[1,1′-biphenyl]-3-yl)-5-methyl-1H-imidazole 3-oxide] |
| < 1 | > 30 | < 20 | – | CNC(=O)c1cccc(NC(=O)c2c(C)[nH]c(-c3cc(N)cc(-c4c(C)cccc4C)c3)[n+]2[O-])c1 [Compound 180, 2-(5-amino-2′,6′-dimethyl-[1,1′-biphenyl]-3-yl)-5-methyl-4-((3-(methylcarbamoyl)phenyl)carbamoyl)-1H-imidazole 3-oxide] |
| < 1 | – | < 20 | Inactive | CCC(F)(F)c1cccc(NC(=O)c2c(C)[nH]c(-c3cc(-c4c(C)cccc4C)c(OC)cc3O)[n+]2[O-])c1 [Compound 123, 4-((3-(1,1-difluoropropyl)phenyl)carbamoyl)-2-(4-hydroxy-6-methoxy-2′,6′-dimethyl-[1,1′-biphenyl]-3-yl)-5-methyl-1H-imidazole 3-oxide] |
| < 1 | – | < 20 | Inactive | CNC(=O)c1cccc(NC(=O)c2c(C)[nH]c(-c3cc(-c4c(C)cccc4C)cc(N(C)C)c3)[n+]2[O-])c1 [Compound 182, 2-(5-(dimethylamino)-2′,6′-dimethyl-[1,1′-biphenyl]-3-yl)-5-methyl-4-((3-(methylcarbamoyl)phenyl)carbamoyl)-1H-imidazole 3-oxide] |
| < 1 | – | > 50 | Inactive | COc1cc(F)c(-c2[nH]c(C)c(C(=O)Nc3cccc(C(F)(F)C4CC4)c3)[n+]2[O-])nc1-c1c(C)cccc1C [Compound 202, 4-((3-(cyclopropyldifluoromethyl)phenyl)carbamoyl)-2-(6-(2,6-dimethylphenyl)-3-fluoro-5-methoxypyridin-2-yl)-5-methyl-1H-imidazole 3-oxide] |
| < 1 | – | 20 to 50 | Inactive | CNS(=O)(=O)c1cccc(NC(=O)c2c(C)[nH]c(-c3ccc(OC)c(-c4c(C)cccc4C)c3)[n+]2[O-])c1 [Compound 187, 2-(6-methoxy-2′,6′-dimethyl-[1,1′-biphenyl]-3-yl)-5-methyl-4-((3-(N-methylsulfamoyl)phenyl)carbamoyl)-1H-imidazole 3-oxide] |
| < 1 | – | < 20 | Inactive | CCC(F)(F)c1cccc(NC(=O)c2c(C)[nH]c(-c3cc(CCN(C)C)c(OC)c(-c4c(C)cccc4C)c3)[n+]2[O-])c1 [Compound 169, 4-((3-(1,1-difluoropropyl)phenyl)carbamoyl)-2-(5-(2-(dimethylamino)ethyl)-6-methoxy-2′,6′-dimethyl-[1,1′-biphenyl]-3-yl)-5-methyl-1H-imidazole 3-oxide] |
| < 1 | – | < 20 | Inactive | CCC(F)(F)c1cccc(NC(=O)c2c(C)[nH]c(-c3ccc(OC)c(-c4c(C)cccc4C)n3)[n+]2[O-])c1 [Compound 149, 4-((3-(1,1-difluoropropyl)phenyl)carbamoyl)-2-(6-(2,6-dimethylphenyl)-5-methoxypyridin-2-yl)-5-methyl-1H-imidazole 3-oxide] |
| < 1 | – | 20 to 50 | Inactive | CCC(F)(F)c1cccc(NC(=O)c2c(C)[nH]c(-c3ccc(Cl)c(-c4c(C)cccc4C)c3)[n+]2[O-])c1 [Compound 108, 2-(6-chloro-2′,6′-dimethyl-[1,1′-biphenyl]-3-yl)-4-((3-(1,1-difluoropropyl)phenyl)carbamoyl)-5-methyl-1H-imidazole 3-oxide] |
| < 1 | > 30 | < 20 | – | CCC(F)(F)c1cccc(NC(=O)c2c(C)[nH]c(-c3cccc(-c4c(C)ncnc4C)c3)[n+]2[O-])c1 [Compound 112, 4-((3-(1,1-difluoropropyl)phenyl)carbamoyl)-2-(3-(4,6-dimethylpyrimidin-5-yl)phenyl)-5-methyl-1H-imidazole 3-oxide] |
| – | – | 20 to 50 | Inactive | CCC(F)(F)c1cccc(NC(=O)c2c(C)[nH]c(-c3ccc(OC)cc3)[n+]2[O-])c1 [Compound 101, 4-((3-(1,1-difluoropropyl)phenyl)carbamoyl)-2-(4-methoxyphenyl)-5-methyl-1H-imidazole 3-oxide] |
| – | – | < 20 | Inactive | CCC(F)(F)c1cccc(NC(=O)c2c(C)[nH]c(-c3ccc(OC)c(-c4ncccc4C)c3)[n+]2[O-])c1 [Compound 100, 4-((3-(1,1-difluoropropyl)phenyl)carbamoyl)-2-(4-methoxy-3-(3-methylpyridin-2-yl)phenyl)-5-methyl-1H-imidazole 3-oxide] |
